In patent US8680052B1, “Methods of treating, reducing the incidence of, and/or preventing ischemic events” (The Medicines Company, priority 2013, dated 2014):
Where two headings read alike, the source gives them in different places.

Tests used:
[1] = tested on: patients with atherosclerosis undergoing PCI
Description: The protocol called for aspirin (75 to 325 mg) to be administered to all patients. […] The choice of a periprocedural anticoagulant (bivalirudin, unfractionated heparin, low-molecular-weight heparin, or fondaparinux) was also at the discretion of the investigator. Glycoprotein IIb/IIIa inhibitors were allowed only as rescue therapy during PCI to treat new or persistent thrombus formation, slow or no reflow, side-branch compromise, dissection, or distal embolization. The investigator at the site determined the protocol for management of the arterial sheath.
The inclusion criteria for the trial were men or nonpregnant women, 18 years of age or older with coronary atherosclerosis who required PCI for stable angina, a non-ST-segment elevation acute coronary syndrome, or ST-segment elevation myocardial infarction (STEMI). Patients were required to provide written informed consent.
Major exclusion criteria were receipt of a P2Y12 inhibitor or abciximab at any time in the 7 days before randomization and receipt of eptifibatide or tirofiban or fibrinolytic therapy in the 12 hours before randomization.
The primary efficacy end point was the composite rate of death from any cause, myocardial infarction, IDR, or stent thrombosis in the 48 hours after randomization in the modified intention-to-treat population (which comprised patients who actually underwent PCI and received the study drug). […] The key secondary end point was the incidence of stent thrombosis at 48 hours. This end point included definite stent thrombosis, defined according to the criteria of the Academic Research Consortium, or intraprocedural stent thrombosis, which was assessed, with group assignments concealed, at an angiographic core laboratory (Cardiovascular Research Foundation). Intraprocedural stent thrombosis was defined as any new or worsened thrombus related to the stent procedure that was confirmed angiographically. Events of death, myocardial infarction, IDR, and stent thrombosis that occurred during the first 30 days after randomization were adjudicated by the clinical events committee at the Duke Clinical Research Institute. The study adhered to the universal definition of myocardial infarction for myocardial infarction unrelated to PCI but expanded on the definition of PCI-related myocardial infarction.
The numbers and percentages of patients within each analysis population (modified intention-to-treat, intention-to-treat, and safety) were summarized according to treatment group. The primary efficacy analysis of the rate of the composite end point of death from any cause, myocardial infarction, IDR, or stent thrombosis (with all events adjudicated by the clinical events committee) in the 48 hours after randomization was conducted in the modified intention-to-treat population. The primary safety analysis was conducted in the safety population, which comprised all patients who underwent randomization and received at least one dose of the study drug; patients were classified according to the actual treatment received. All calculations and statistical analyses were performed with the use of SAS software, version 9.2.

platelets = assay: Example 4: platelet activation measured by flow cytometry; assay type: in vivo, human; conditions: P-selectin expression, 1 μM ADP
Description: The study involved 12 patients who met the criteria of being 18-75 years of age, having coronary artery disease (CAD) documented by a previous MI or coronary revascularization, and taking 81 mg of aspirin daily. […] Prohibited concomitant medications included strong and potent CYP3A inhibitors, simvastatin and lovastatin at doses more than 40 mg/day, omeprazole or esomeprazole, and digoxin. Use of non-steroidal anti-inflammatory agents was discouraged during study participation but not prohibited.
Each patient was administered a 30 μg/kg bolus of cangrelor followed immediately by a 2 hr infusion at a rate of 4.0 μg/kg/min. A loading dose of ticagrelor (180 mg) was given after 0.5 hr or 1.25 hr (n=6 for each). Blood for pharmacodynamic platelet function studies was taken after 0.5 or 1.25 hr (corresponding to the time of ticagrelor load, n=6 for each), and then at 1.75, 2, 2.25, 2.5, 2.75, 3, 4, and 5.25 hr. Patients were assigned randomly to receive either 6 (n=6) or 7 (n=6) doses of ticagrelor to be taken every 12 hours following the discontinuation of the infusion of cangrelor. On study day 5, each patient was administered a 30 μg/kg bolus of cangrelor followed immediately by a 2 hr infusion at a rate of 4.0 μg/kg/min. Blood for pharmacodynamic assessment was taken after 1 and 2 hr. Adverse events were queried throughout study participation that ended with a telephone interview performed on study day 10-12.
Pharmacodynamic assessment included light transmission aggregometry (LTA), VerifyNow® P2Y12 assay, vasodilator-stimulated phosphoprotein (VASP) index, and platelet activation measured with the use of flow cytometry. Assessment of LTA, VerifyNow®, and platelet activation with the use of flow cytometry was performed within 30 min of blood being taken. In the case of flow cytometry, samples were processed to fixation and then batched for analysis. For VASP, index samples were batched and processed as recommended by the vendor within 2 h of blood being taken. This approach limited the time from fixation of VASP index to flow analysis to less than 1 h.
LTA induced by 5 μM and 20 μM adenosine diphosphate (ADP) was quantified ex vivo (i.e. in non-adjusted platelet rich plasma). Platelet-poor plasma was set as 100% aggregation, and both maximal (peak) and terminal (at 300 s) aggregation were measured with a PAP4 aggregometer (BioData, Horsham, Pa.). VerifyNow® P2Y12 assay (Accumetrics Inc, San Diego, Calif.) that measures the effects of drugs on the P2Y12 receptor by activating platelets with prostaglandin El in addition to ADP was used in accordance with the instructions provided by the manufacturer. Platelet reactivity was expressed in P2Y12 reaction units (PRU). Activation of platelets was identified with the use of flow cytometry as previously described.^17. And to determine the VASP index, a commercially available kit (Diagnostica Stago, Inc, Parsippany NJ) was used. ^17 Schneider D J, Sobel B E. Streamlining the design of promising clinical trials: in-vitro testing of antithrombotic regimens and multiple agonists of platelet activation. Coron Artery Dis. 2009; 20:175-8.

[2] = 48 hours, ITT, rate in parentheses
[3] = reference 5.25 h, Ticagrelor at 0.5 h
[4] = reference 5.25 h, Ticagrelor at 1.25 h

**Q.** With `COC(=O)[C@H](c1ccccc1Cl)N1CCc2sccc2C1` [Clopidogrel, clopidogrel, reference compound] as the compound, how does the “rate of stent thrombosis (key secondary efficacy end point)” value ([1]; 48 hours) read?
**A.** 1.4%

**Q.** And the Death ([1]; 48 hours, ITT, n/N)?
**A.** 21/5561

**Q.** And the Death/MI ([1]; 48 hours, ITT, n/N)?
**A.** 275/5561

**Q.** What about the Death/MI/IDR ([1]; 48 hours, ITT, n/N) of the same compound?
**A.** 289/5561

**Q.** And the Death/MI/IDR/ST ([1]; 48 hours, ITT, n/N)?
**A.** 325/5561

**Q.** What about the “Death/MI/IDR/ST/GUSTO Severe Bleeding (Net Adverse Clinical Events, NACE)” value ([1]; 48 hours, ITT, n/N) of the same compound?
**A.** 330/5561

**Q.** And the Death/MI/ST ([1]; 48 hours, ITT, n/N)?
**A.** 315/5561

**Q.** And the “Death/Q-wave MI/IDR” value ([1]; 48 hours, ITT, n/N)?
**A.** 67/5561

**Q.** And the Death/ST ([1]; 48 hours, ITT, n/N)?
**A.** 90/5561

**Q.** What about the IDR ([1]; 48 hours, ITT, n/N) of the same compound?
**A.** 38/5561

**Q.** What about the MI ([1]; 48 hours, ITT, n/N) of the same compound?
**A.** 255/5561

**Q.** And the “Q-wave MI” value ([1]; 48 hours, ITT, n/N)?
**A.** 18/5561

**Q.** What about the Stent thrombosis ([1]; 48 hours, ITT, n/N) of the same compound?
**A.** 74/5561

**Q.** And the Death [1, 2]?
**A.** (0.4)

**Q.** What about the Death/MI [1, 2] of the same compound?
**A.** (5.0)

**Q.** And the Death/MI/IDR [1, 2]?
**A.** (5.2)

**Q.** And the Death/MI/IDR/ST [1, 2]?
**A.** (5.8)

**Q.** And the “Death/MI/IDR/ST/GUSTO Severe Bleeding (Net Adverse Clinical Events, NACE)” value [1, 2]?
**A.** (5.9)

**Q.** What about the Death/MI/ST [1, 2] of the same compound?
**A.** (5.7)

**Q.** And the “Death/Q-wave MI/IDR” value [1, 2]?
**A.** (1.2)

**Q.** What about the Death/ST [1, 2] of the same compound?
**A.** (1.6)

**Q.** What about the IDR [1, 2] of the same compound?
**A.** (0.7)

**Q.** And the MI [1, 2]?
**A.** (4.6)

**Q.** What about the “Q-wave MI” value [1, 2] of the same compound?
**A.** (0.3)

**Q.** And the Stent thrombosis [1, 2]?
**A.** (1.3)

**Q.** And the “rate of primary composite efficacy end point (death from any cause, myocardial infarction, IDR, or stent thrombosis)” value ([1]; 48 hours, modified intention-to-treat)?
**A.** 5.9%

**Q.** What about the “net rate of adverse clinical events (primary efficacy plus primary safety end point)” value ([1]; 48 hours, post hoc) of the same compound?
**A.** 6.0%

**Q.** What about the Stent thrombosis ([1]; 30 days) of the same compound?
**A.** 1.9%

**Q.** What about the “rate of the composite efficacy end point” value ([1]; 30 days) of the same compound?
**A.** 7.0%

**Q.** What about the “rate of intraprocedural stent thrombosis” value ([1]; in vivo) of the same compound?
**A.** 1.0%

**Q.** And the “rate of procedural complications” value ([1]; in vivo)?
**A.** 4.5%

**Q.** And the “use of rescue therapy with a glycoprotein IIb/IIIa inhibitor” value ([1]; in vivo)?
**A.** 3.5%

**Q.** How did the “Flow Cytometry IPR” value (platelets; 2.25 h, All) turn out when `CCCSc1nc(N[C@@H]2C[C@H]2c2ccc(F)c(F)c2)c2nnn([C@@H]3C[C@H](OCCO)[C@@H](O)[C@H]3O)c2n1` [ticagrelor] was run?
**A.** 84 ± 8

**Q.** What about the “Flow Cytometry PR” value (platelets; 2.25 h, All) of the same compound?
**A.** 7.8 ± 3.7

**Q.** What about the “Flow Cytometry IPR” value (platelets; 2.25 h, Ticagrelor at 0.5 h) of the same compound?
**A.** 86 ± 8

**Q.** And the “Flow Cytometry PR” value (platelets; 2.25 h, Ticagrelor at 0.5 h)?
**A.** 7.5 ± 2.4

**Q.** What about the “Flow Cytometry IPR” value (platelets; 2.25 h, Ticagrelor at 1.25 h) of the same compound?
**A.** 83 ± 9

**Q.** What about the “Flow Cytometry PR” value (platelets; 2.25 h, Ticagrelor at 1.25 h) of the same compound?
**A.** 8 ± 4.9

**Q.** And the “Flow Cytometry IPR” value (platelets; 2.5 h, All)?
**A.** 67 ± 29

**Q.** What about the “Flow Cytometry PR” value (platelets; 2.5 h, All) of the same compound?
**A.** 14 ± 8.6

**Q.** What about the “Flow Cytometry IPR” value (platelets; 2.5 h, Ticagrelor at 0.5 h) of the same compound?
**A.** 81 ± 17

**Q.** What about the “Flow Cytometry PR” value (platelets; 2.5 h, Ticagrelor at 0.5 h) of the same compound?
**A.** 9.2 ± 5.9

**Q.** And the “Flow Cytometry IPR” value (platelets; 2.5 h, Ticagrelor at 1.25 h)?
**A.** 53 ± 34

**Q.** And the “Flow Cytometry PR” value (platelets; 2.5 h, Ticagrelor at 1.25 h)?
**A.** 19 ± 8.5

**Q.** And the “Flow Cytometry IPR” value (platelets; 2.75 h, All)?
**A.** 80 ± 17

**Q.** And the “Flow Cytometry PR” value (platelets; 2.75 h, All)?
**A.** 8.8 ± 5.6

**Q.** What about the “Flow Cytometry IPR” value (platelets; 2.75 h, Ticagrelor at 0.5 h) of the same compound?
**A.** 82 ± 13

**Q.** What about the “Flow Cytometry PR” value (platelets; 2.75 h, Ticagrelor at 0.5 h) of the same compound?
**A.** 9.3 ± 4.7

**Q.** What about the “Flow Cytometry IPR” value (platelets; 2.75 h, Ticagrelor at 1.25 h) of the same compound?
**A.** 79 ± 22

**Q.** What about the “Flow Cytometry PR” value (platelets; 2.75 h, Ticagrelor at 1.25 h) of the same compound?
**A.** 8.3 ± 6.9

**Q.** What about the “Flow Cytometry IPR” value (platelets; 3 h, All) of the same compound?
**A.** 86 ± 13

**Q.** What about the “Flow Cytometry PR” value (platelets; 3 h, All) of the same compound?
**A.** 6.5 ± 4.1

**Q.** What about the “Flow Cytometry IPR” value (platelets; 3 h, Ticagrelor at 0.5 h) of the same compound?
**A.** 87 ± 10

**Q.** What about the “Flow Cytometry PR” value (platelets; 3 h, Ticagrelor at 0.5 h) of the same compound?
**A.** 6.8 ± 2.9

**Q.** What about the “Flow Cytometry IPR” value (platelets; 3 h, Ticagrelor at 1.25 h) of the same compound?
**A.** 86 ± 16

**Q.** What about the “Flow Cytometry PR” value (platelets; 3 h, Ticagrelor at 1.25 h) of the same compound?
**A.** 6.2 ± 5.3

**Q.** And the “Flow Cytometry IPR” value (platelets; 4 h, All)?
**A.** 84 ± 15

**Q.** And the “Flow Cytometry PR” value (platelets; 4 h, All)?
**A.** 7.5 ± 6.2

**Q.** And the “Flow Cytometry IPR” value (platelets; 4 h, Ticagrelor at 0.5 h)?
**A.** 90 ± 4

**Q.** And the “Flow Cytometry PR” value (platelets; 4 h, Ticagrelor at 0.5 h)?
**A.** 5.5 ± 2.4

**Q.** And the “Flow Cytometry IPR” value (platelets; 4 h, Ticagrelor at 1.25 h)?
**A.** 78 ± 20

**Q.** What about the “Flow Cytometry PR” value (platelets; 4 h, Ticagrelor at 1.25 h) of the same compound?
**A.** 9.5 ± 8.2

**Q.** And the “Flow Cytometry IPR” value (platelets; reference 5.25 h, All)?
**A.** 91 ± 6

**Q.** And the “Flow Cytometry PR” value (platelets; reference 5.25 h, All)?
**A.** 5 ± 3.6

**Q.** What about the “Flow Cytometry IPR” value (platelets; [3]) of the same compound?
**A.** 91 ± 4

**Q.** And the “Flow Cytometry PR” value (platelets; [3])?
**A.** 5.5 ± 3.9

**Q.** What about the “Flow Cytometry IPR” value (platelets; [4]) of the same compound?
**A.** 91 ± 7

**Q.** What about the “Flow Cytometry PR” value (platelets; [4]) of the same compound?
**A.** 4.5 ± 2
